Values after ≈ are worked out from the molar mass of the structure shown. Active and inactive are the calls of the source. The calls are words filed in the database; no cut-off is given here.
Columns and labels:
[1] = target: DNA topoisomerase II (Homo sapiens) (UniProt P11388+Q02880); assay: Double strand DNA breakage reflecting stabilization of DNA topoisomerase II intermediate by the compound expressed in terms of ng of DNA/unit of enzyme/mM of drug
P388 [2] = assay: In vivo antitumor activity against Murine P388 murine leukemia cell line up to a conc of 100 mg/kg; IA - Totally inactive; assay type: functional, organism-based; set-up: dose 100 mg/kg; conditions: Mus musculus
[3] = Resistance ratio was determined as the ratio of resistance to cytotoxicity against human colon tumor (HCT116) to that of (HCT/VP35) cells grown in culture; assay type: functional
P388 [4] = assay: In vivo antitumor activity against Murine P388 murine leukemia cell line up to a conc of 100 mg/kg; A - Active; assay type: functional, organism-based; set-up: dose 100 mg/kg; conditions: Mus musculus
HCT cell line = assay: In vitro inhibition of compound against HCT cell lines was determined after 72 hr of administration of the dose; assay type: functional, cell-based; conditions: Homo sapiens
HCT-116 = assay: In vitro inhibition of compound against HCT/VP35 cell lines was determined after 72 hr of administration of the dose; assay type: functional, cell-based; conditions: Homo sapiens, HCT-116, 72 h

Structure (SMILES) | DSB [1] | Activity (P388 [2]) | further results
C=CCc1c(OC)cc([C@@H]2c3cc4c(cc3[C@@H](O[C@@H]3O[C@@H]5CO[C@@H](C)O[C@H]5[C@H](O)[C@H]3O)[C@H]3COC(=O)[C@H]23)OCO4)cc1OC | 17 | inactive | –
COc1cc(OC)cc([C@@H]2c3cc4c(cc3[C@@H](O[C@@H]3O[C@@H]5CO[C@@H](C)O[C@H]5[C@H](O)[C@H]3O)[C@H]3COC(=O)[C@H]23)OCO4)c1 | 27 | – | Resistance ratio [3]: 0.5
COc1cc([C@@H]2c3cc4c(cc3[C@@H](O[C@@H]3O[C@@H]5CO[C@@H](c6cccs6)O[C@H]5[C@H](O)[C@H]3O)[C@H]3COC(=O)[C@H]23)OCO4)cc(OC)c1O | 346 | – | –
COc1cc([C@@H]2c3cc4c(cc3[C@@H](O[C@@H]3O[C@@H]5CO[C@@H](C)O[C@H]5[C@H](O)[C@H]3O)[C@H]3COC(=O)[C@H]23)OCO4)cc(OC)c1C | 26 | – | Activity (P388 [4]): Active; IC50 (HCT cell line): 5.7 µg/mL (≈ 9.72 µM); IC50 (HCT-116): 5.7 µg/mL (≈ 9.72 µM)
COc1cc([C@@H]2c3cc4c(cc3[C@@H](O[C@@H]3O[C@@H]5CO[C@@H](c6cccs6)O[C@H]5[C@H](O)[C@H]3O)[C@H]3COC(=O)[C@H]23)OCO4)cc(OC)c1C | 49 | inactive | –
C=CCc1c(OC)cc([C@@H]2c3cc4c(cc3[C@@H](O[C@@H]3O[C@@H]5CO[C@@H](c6cccs6)O[C@H]5[C@H](O)[C@H]3O)[C@H]3COC(=O)[C@H]23)OCO4)cc1OC | 42 | – | –
C=Cc1c(OC)cc([C@@H]2c3cc4c(cc3[C@@H](O[C@@H]3O[C@@H]5CO[C@@H](C)O[C@H]5[C@H](O)[C@H]3O)[C@H]3COC(=O)[C@H]23)OCO4)cc1OC | 17 | inactive | –
COc1cc([C@@H]2c3cc4c(cc3[C@@H](O[C@@H]3O[C@@H]5CO[C@@H](C)O[C@H]5[C@H](O)[C@H]3O)[C@H]3COC(=O)[C@H]23)OCO4)cc(OC)c1O | 305 | – | –
